Series [1] has as its system HT-29. The series can be described thus: Antiproliferative activity against human HT-29 cells measured after 72 hrs by MTT assay. The series is classed as functional, cell-based. The note with it: HT-29, 72 h. Background: Tetrazolium dyes change colour on reduction, which living cells bring about.
Series [2] has as its system HCT-116. The series can be described thus: Antiproliferative activity against human HCT-116 cells measured after 72 hrs by MTT assay. It counts as functional, cell-based. The note with it: HCT-116, 72 h.
Series [3] deals with K562. The experiment in a line: cells. The note with it: Homo sapiens, K562, 72 h.
Description: Antiproliferative activity against human K562 cells measured after 72 hrs by MTT assay
Series [4] has as its system MCF7. The experiment in a line: cells. The settings on record: Homo sapiens, MCF7, 72 h.
Description: Antiproliferative activity against human MCF7 cells measured after 72 hrs by MTT assay
Series [5] is described as follows: Metabolic stability in human liver microsomes assessed as half life at 1 uM by LC/MS analysis. The series is classed as ADME, Microsome. A general note: Liver microsomes are a subcellular fraction often used to study metabolism.
A short description of series [6]: Metabolic stability in human liver microsomes assessed as intrinsic clearance at 1 uM by LC/MS analysis. The settings on record: read-out: CLH. It counts as ADME, Microsome.

Our source for the IC50, half-life and CLint scaled values is ChEMBL document CHEMBL5236615, “Discovery of Novel N-Heterocyclic-Fused Deoxypodophyllotoxin Analogues as Tubulin Polymerization Inhibitors Targeting the Colchicine-Binding Site for Cancer Treatment” (J Med Chem, 2022).

A word on the IC50: it is the concentration at which inhibition is half-maximal. For `COc1cc([C@@H]2c3cc4c(cc3C[C@H]3C(=O)NC(=O)N23)OCCO4)cc2c1OCO2`, the IC50 in series [1] was found to be 74.8 nM; in series [2] it was 46.9 nM; in series [3], 91.7 nM; in series [4] it was 36.2 nM.

For the compound `COc1c(Br)cc([C@H]2c3cc4c(cc3C[C@H]3C(=O)NC(=O)N23)OCCO4)cc1Br`, the IC50 in series [1], in series [2], in series [3] and in series [4] was more than 5000 nM each time.

As usually defined, the half-life is how long it takes for the measured level to halve. With `COc1c(Cl)cc([C@@H]2c3cc4c(cc3C[C@H]3COC(=O)N32)OCCO4)cc1Cl`, the half-life at 1 µM in series [5] was found to be 2.95 min. Moreover, the IC50 in series [1] was 6 nM; in series [2] it was 5.8 nM; in series [3], 6.3 nM; in series [4] it was 5.9 nM. Besides, the CLint scaled at 1 µM in series [6] stood at 589 mL/min/kg.

As to `COc1cc([C@@H]2c3cc4c(cc3C[C@H]3COC(=O)N32)OCO4)ccn1`, the IC50 in series [1], in series [2], in series [3] and in series [4] was more than 5000 nM throughout.

Consider `COc1cc([C@@H]2c3cc4c(cc3C[C@H]3COC(=O)N32)OCCO4)cc(OC)c1Br`, for which the IC50 in series [1] amounted to 48.4 nM; in series [2] it was 103 nM; in series [3], 39.5 nM; in series [4], 37.5 nM.

As to `COc1cc([C@@H]2c3cc4c(cc3C[C@H]3COC(=O)N32)OCO4)cc2c1OCO2`, the IC50 in series [1] turned out to be 212 nM; in series [2], 56.6 nM; in series [3] it was 72.3 nM; in series [4], 149 nM.

On to `CCN1C(=O)[C@@H]2Cc3cc4c(cc3[C@@H](c3cc(OC)c(OC)c(OC)c3)N2C1=O)OCCO4`, for which the IC50 in series [1], in series [2], in series [3] and in series [4] was more than 5000 nM in each case.

In the case of `COc1cc([C@@H]2c3cc4c(cc3C[C@H]3C(=O)NCC(=O)N23)OCO4)cc(OC)c1OC`, the IC50 in series [1] worked out at 1920 nM; in series [2], 1240 nM; in series [3], 789 nM; in series [4], 2330 nM.

Regarding `COc1cc([C@@H]2c3cc4c(cc3C[C@H]3COC(=O)[C@@H]32)OCO4)cc(OC)c1OC` [DESOXYPODOPHYLLOTOXIN], in series [5], the half-life at 1 µM is 1.12 min. Besides, the IC50 in series [1] was determined as 16.6 nM; in series [2], 14.5 nM; in series [3], 16 nM; in series [4], 6 nM. Also, the CLint scaled at 1 µM in series [6] came to 1440 mL/min/kg.

Take `COc1cc2c(cc1OC)[C@@H](c1cc(OC)c(OC)c(OC)c1)N1C(=O)OC[C@@H]1C2`: the IC50 in series [1], in series [2], in series [3] and in series [4] was more than 5000 nM throughout.

Turning to `COc1cc([C@@H]2c3cc4c(cc3C[C@H]3COC(=O)N32)OCCO4)cc(F)c1OC`, the IC50 in series [1] came to 18.2 nM; in series [2] it was 10.1 nM; in series [3] it was 13.4 nM; in series [4] it was 11.4 nM.

Turning to `COc1cc([C@@H]2c3cc4c(cc3C[C@H]3C(=O)N(C)C(=S)N23)OCO4)cc(OC)c1OC`, the concentration for half-maximal inhibition (IC50) in series [1], in series [2], in series [3] and in series [4] was more than 5000 nM each time.

Turning to `COc1cc([C@@H]2c3cc4c(cc3C[C@H]3COC(=O)N32)OCCCO4)cc(OC)c1OC`, the IC50 in series [1] came to 81.9 nM; in series [2], 119 nM; in series [3], 107 nM; in series [4], 58.8 nM.

Regarding `COc1cc([C@@H]2c3cc4c(cc3C[C@H]3C(=O)NC(=O)N23)OCCO4)cc([N+](=O)[O-])c1OC`, the IC50 in series [1] worked out at 49.9 nM; in series [2] it was 31.6 nM; in series [3], 53.4 nM; in series [4], 40.7 nM.

`O=C1NC(=O)N2[C@H](c3cc(Cl)nc(Cl)c3)c3cc4c(cc3C[C@@H]12)OCCO4`: the IC50 in series [1] was 357 nM; in series [2], 533 nM; in series [3] it was 424 nM; in series [4], 400 nM.

In the case of `CCN1C(=O)[C@@H]2Cc3cc4c(cc3[C@@H](c3cc(OC)c(OC)c(OC)c3)N2C1=S)OCO4`, the IC50 in series [1], in series [2], in series [3] and in series [4] was more than 5000 nM in each case.

For `COc1cc([C@@H]2c3cc4c(cc3C[C@H]3C(=O)NC(=O)N23)OCO4)cc(OC)c1OC`, the IC50 in series [1] stood at 49.1 nM; in series [2] it was 64.3 nM; in series [3], 44.9 nM; in series [4], 125 nM.

As to `COc1cc([C@@H]2c3cc4c(cc3C[C@H]3COC(=O)N32)OCO4)cc(OC)c1OC`, the IC50 was 26.7 nM in series [1], 16.6 nM in series [2], 20 nM in series [3] and 33.6 nM in series [4].

As for `COc1cc([C@@H]2c3cc4c(cc3C[C@H]3COC(=O)N32)OCCO4)ccc1F`, the IC50 in series [1] was 63.4 nM; in series [2], 273 nM; in series [3], 154 nM; in series [4], 376 nM.

As to `CCCN1CC(=O)N2[C@H](c3cc(OC)c(OC)c(OC)c3)c3cc4c(cc3C[C@H]2C1=O)OCCO4`, the IC50 in series [1], in series [2], in series [3] and in series [4] was more than 5000 nM throughout.

Turning to `COc1cc([C@@H]2c3cc4c(cc3C[C@H]3C(=O)NC(=O)N23)OCCO4)cc(OC)c1OC`, in series [5], the half-life at 1 µM stood at 21.4 min. The IC50 in series [1] was determined as 21.4 nM; in series [2] it was 27.2 nM; in series [3], 31.9 nM; in series [4], 16.9 nM. The CLint scaled at 1 µM in series [6] is 81.2 mL/min/kg.

With `O=C1NC(=O)N2[C@H](c3cc(Cl)c(F)c(Cl)c3)c3cc4c(cc3C[C@@H]12)OCCO4`, the half-life at 1 µM in series [5] was 14.4 min. Besides, the IC50 in series [1] was found to be 23.2 nM; in series [2], 22.9 nM; in series [3], 49 nM; in series [4], 48.8 nM. In series [6], the CLint scaled at 1 µM was 121 mL/min/kg.

As to `CCN1C(=O)[C@@H]2Cc3cc4c(cc3[C@@H](c3cc(OC)c(OC)c(OC)c3)N2C1=S)OCCO4`, the IC50 in series [1], in series [2], in series [3] and in series [4] was more than 5000 nM in each case.

For the compound `COc1cc([C@@H]2c3cc4c(cc3C[C@H]3C(=O)NC(=O)N23)OCCO4)cc(F)c1OC`, the IC50 in series [1] worked out at 26.3 nM; in series [2], 20.1 nM; in series [3] it was 29.5 nM; in series [4], 21.9 nM.

Take `COc1cc([C@@H]2c3cc4c(cc3C[C@H]3COC(=O)N32)OCCCO4)cc2c1OCO2`: the IC50 was found to be 611 nM in series [1], 137 nM in series [2], 193 nM in series [3] and 965 nM in series [4].

On to `COc1cc([C@@H]2c3cc4c(cc3C[C@H]3C(=O)N(C)C(=S)N23)OCCO4)cc(OC)c1OC`, for which the IC50 in series [1], in series [2], in series [3] and in series [4] was more than 5000 nM throughout.

`COc1cc([C@@H]2c3cc4c(cc3C[C@H]3COC(=O)N32)OCCO4)cc2c1OCO2`: the IC50 in series [1] was 44.3 nM; in series [2], 50.9 nM; in series [3], 29.6 nM; in series [4], 35.4 nM.

As for `O=C1OC[C@@H]2Cc3cc4c(cc3[C@@H](c3cc(C(F)(F)F)cc(C(F)(F)F)c3)N12)OCCO4`, the IC50 is 56.8 nM in series [1], 312 nM in series [2], 202 nM in series [3] and 100 nM in series [4].

As for `CCCN1CC(=O)N2[C@H](c3cc(OC)c(OC)c(OC)c3)c3cc4c(cc3C[C@H]2C1=O)OCO4`, the IC50 in series [1], in series [2], in series [3] and in series [4] was more than 5000 nM each time.

On to `COc1c(Br)cc([C@@H]2c3cc4c(cc3C[C@H]3COC(=O)N32)OCCO4)cc1Br`, for which the half-life at 1 µM in series [5] was 1.27 min. Further, the IC50 in series [1] was 2.4 nM; in series [2] it was 3.3 nM; in series [3], 6.7 nM; in series [4], 4.3 nM. In addition, in series [6], the CLint scaled at 1 µM came to 1370 mL/min/kg.

Consider `O=C1OC[C@@H]2Cc3cc4c(cc3[C@@H](c3ccncc3)N12)OCO4`, for which the IC50 in series [1], in series [2], in series [3] and in series [4] was more than 5000 nM throughout.

Turning to `COc1cc([C@@H]2c3cc4c(cc3C[C@H]3C(=O)NCC(=O)N23)OCCO4)cc(OC)c1OC`, the IC50 in series [1] turned out to be 749 nM; in series [2], 3120 nM; in series [3], 785 nM; in series [4] it was 1560 nM.

For `COc1cc([C@@H]2c3cc4c(cc3C[C@H]3COC(=O)N32)OCCO4)cc(OC)c1OC`, in series [5], the half-life at 1 µM stood at 2.19 min. Besides, the IC50 in series [1] turned out to be 14.9 nM; in series [2] it was 6.8 nM; in series [3] it was 17.1 nM; in series [4] it was 17.3 nM. Further, the CLint scaled at 1 µM in series [6] turned out to be 794 mL/min/kg.

`COc1cc([C@@H]2c3cc4c(cc3C[C@H]3COC(=O)N32)OCO4)cc(OC)c1O`: the IC50 in series [1], in series [2], in series [3] and in series [4] was more than 5000 nM in each case.

Consider `O=C1OC[C@@H]2Cc3cc4c(cc3[C@@H](c3ccc(OC(F)F)c(OC(F)F)c3)N12)OCCO4`, for which the IC50 in series [1] was 74.8 nM; in series [2] it was 918 nM; in series [3] it was 316 nM; in series [4], 265 nM.

Take `COc1ccc([C@@H]2c3cc4c(cc3C[C@H]3COC(=O)N32)OCO4)cc1OC`: the IC50 in series [1] was 755 nM; in series [2], more than 5000 nM; in series [3] it was 593 nM; in series [4] it was more than 5000 nM.

As to `CCN1C(=O)[C@@H]2Cc3cc4c(cc3[C@@H](c3cc(OC)c(OC)c(OC)c3)N2C1=O)OCO4`, the IC50 in series [1], in series [2], in series [3] and in series [4] was more than 5000 nM throughout.
